Laboratory results reported in patent US4594358A, “Analgesic method” (Eli Lilly and Company, priority 1985, dated 1986).
Where a name gives a salt, the structure may show the parent alone. Read-outs that look alike come from different tables or passages of the source.

Tests used:
mouse writhing = mouse writhing assay (acetic acid induced); assay type: in vivo, mouse (albino male mice); conditions: for ability to potentiate analgesic effect of dextropropoxyphene (in words): mouse, in vivo; for Percent Inhibition of Writhing: Table 4, dextropropoxyphene napsylate 40 mg/kg + saline p.o.
Source text: Writhing, which is characterized by contraction of the abdominal musculature, extension of the hindlegs, and rotation of the trunk, was induced in albino male mice. The extent to which writhing is reduced following administration of a test compound is an indication of the analgesic activity of that compound.
Mice, weighing 18-24 grams, were fasted overnight and given the test compounds by gavage or subcutaneously. Writhing was then induced by the intraperitoneal administration of acetic acid (0.55 to 0.60 percent). Each treatment group consisted of five mice. The total number of writhes for the treatment group was determined during a 10-minute observation period starting five minutes after acetic acid administration.

[1] = system: monoamine uptake, especially serotonin; conditions: U.S. Pat. No. 4,313,896; cited from earlier work
[2] = administered alone (U.S. Pat. No. 4,035,511) or with morphine (U.S. Pat. No. 4,083,982); cited from earlier work

## CNCCC(Oc1ccc(C(F)(F)F)cc1)c1ccccc1 (stereo not shown) [Fluoxetine Hydrochloride]
Mouse writhing; fluoxetine hydrochloride alone, doses up to 160 mg/kg, 30-180 minutes before writhing was induced
  analgesic activity in mouse writhing test: devoid of analgesic activity

## NCCC(Oc1ccc(C(F)(F)F)cc1)c1ccccc1 (stereo not shown) [Norfluoxetine, 3-(4-trifluoromethylphenoxy)-3-phenylpropylamine]
Mouse writhing
  ability to potentiate analgesic effect of dextropropoxyphene (in words): potentiate the analgesic effect of dextropropoxyphene
[1]
  monoamine uptake blockade (in words): block monoamine uptake, especially serotonin

## CCC(=O)O[C@](Cc1ccccc1)(c1ccccc1)[C@H](C)CN(C)C [Dextropropoxyphene Napsylate]
Mouse writhing; Mus musculus, po, 0.5 h, Table 3, saline pretreatment p.o. three hours prior, dextropropoxyphene napsylate p.o. 30 minutes prior to assessment, read-out: Inhibition of Mouse Writhing ED50
  ED50: 44.2 mg/kg
Mouse writhing; Mus musculus, po, 1 h, read-out: Inhibition of Mouse Writhing ED50
  ED50: 49.3 mg/kg
Mouse writhing; Mus musculus, po, 1 h, read-out: Percent Inhibition of Mouse Writhing
  inhibition at 10 mg/kg: 0%
Mouse writhing; Mus musculus, sc, 0.5 h, read-out: Induced Inhibition of Mouse Writhing ED50
  ED50: 9.95 mg/kg
Mouse writhing; 30 minutes after administration
  Percent Inhibition of Writhing: 40%
Mouse writhing; 60 minutes after administration
  Percent Inhibition of Writhing: 6%
Mouse writhing; 70 minutes after administration
  Percent Inhibition of Writhing: 10%
Mouse writhing; 120 minutes after administration
  Percent Inhibition of Writhing: 28%
Mouse writhing; 180 minutes after administration
  Percent Inhibition of Writhing: 5%
Mouse writhing; dextropropoxyphene napsylate 10 mg/kg p.o. alone, 60 minutes prior to assessment
  inhibition of mouse writhing (in words): no inhibition of the writhing
Mouse writhing; s.c., 30 minutes, 20 mg/kg fluoxetine hydrochloride s.c. concomitantly
  ED50 of dextropropoxyphene napsylate alone relative to that with fluoxetine hydrochloride: twice the amount needed

## CNCCC(Oc1ccc(C(F)(F)F)cc1)c1ccccc1 (stereo not shown) [Fluoxetine, 3-(4-trifluoromethylphenoxy)-N-methyl-3-phenylpropylamine]
[2]
  analgesic properties (in words): possess analgesic properties
Mouse writhing
  ability to potentiate analgesic effect of dextropropoxyphene (in words): potentiate the analgesic effect of dextropropoxyphene
